Conditions: Liquid

FC(F)(F)I [trifluoroiodomethane]
Conditions	mass density [kg/m3]
207.79 K, 10925 kPa, isochoric method	2455.5
210.4 K, 14322 kPa, isochoric method	2455
214.87 K, 20130 kPa, isochoric method	2454.2
214.92 K, 1055.7 kPa, isochoric method	2401.1
215.96 K, 2305 kPa, isochoric method	2400.9
216.71 K, 3175.5 kPa, isochoric method	2400.7
217.73 K, 4381.5 kPa, isochoric method	2400.5
218.37 K, 5116.4 kPa, isochoric method	2400.4
218.48 K, 25008 kPa, isochoric method	2453.5
222.4 K, 29924 kPa, isochoric method	2452.8
222.62 K, 10052 kPa, isochoric method	2399.6
226.21 K, 34684 kPa, isochoric method	2452.1
226.99 K, 15121 kPa, isochoric method	2398.8
229.95 K, 39202 kPa, isochoric method	2451.5
231.25 K, 20002 kPa, isochoric method	2398.1
231.74 K, 1109.5 kPa, isochoric method	2334.8
233.57 K, 2990.1 kPa, isochoric method	2334.5
234.66 K, 4114 kPa, isochoric method	2334.3
235.46 K, 4930.4 kPa, isochoric method	2334.1
235.5 K, 24985 kPa, isochoric method	2397.3
239.91 K, 29944 kPa, isochoric method	2396.6
240.52 K, 10116 kPa, isochoric method	2333.3
244.17 K, 34707 kPa, isochoric method	2395.8
245.45 K, 15114 kPa, isochoric method	2332.4
248.78 K, 39783 kPa, isochoric method	2395.1
250.46 K, 20143 kPa, isochoric method	2331.6
251.97 K, 1975.5 kPa, isochoric method	2256.4
253.21 K, 3063.1 kPa, isochoric method	2256.2
254.16 K, 3884.4 kPa, isochoric method	2256
255.27 K, 4873.4 kPa, isochoric method	2255.8
255.32 K, 25028 kPa, isochoric method	2330.8
260.19 K, 29834 kPa, isochoric method	2330
261.5 K, 10373 kPa, isochoric method	2254.8
265.13 K, 34684 kPa, isochoric method	2329.2
266.41 K, 776 kPa, isochoric method	2188.5
266.75 K, 1052.9 kPa, isochoric method	2188.4
267.06 K, 15109 kPa, isochoric method	2253.2
267.97 K, 1992.8 kPa, isochoric method	2188.2
269.24 K, 2976.2 kPa, isochoric method	2188
270.53 K, 3984.6 kPa, isochoric method	2187.8
270.93 K, 40330 kPa, isochoric method	2328.3
272.12 K, 5216.5 kPa, isochoric method	2187.6
272.85 K, 20116 kPa, isochoric method	2252.3
278.48 K, 25009 kPa, isochoric method	2252.2
278.49 K, 10098 kPa, isochoric method	2186.6
278.5 K, 24979 kPa, isochoric method	2251.5
284.17 K, 29780 kPa, isochoric method	2250.6
284.36 K, 940.5 kPa, isochoric method	2105.8
285.08 K, 15134 kPa, isochoric method	2185.7
285.92 K, 1976.8 kPa, isochoric method	2105.6
287.34 K, 2905.5 kPa, isochoric method	2105.4
288.88 K, 3930.3 kPa, isochoric method	2105.2
290.4 K, 34997 kPa, isochoric method	2249.7
290.43 K, 4950.8 kPa, isochoric method	2104.9
291.69 K, 20129 kPa, isochoric method	2184.7
296.15 K, 39750 kPa, isochoric method	2248.8
297.94 K, 861.4 kPa, isochoric method	2038.1
298.14 K, 10026 kPa, isochoric method	2103.9
298.15 K, 2000 kPa, Pycnometric method	2046.84
298.15 K, 25035 kPa, isochoric method	2183.8
300.01 K, 2068.2 kPa, isochoric method	2037.9
301.75 K, 3070.1 kPa, isochoric method	2037.6
303.44 K, 4061.6 kPa, isochoric method	2037.4
304.54 K, 29729 kPa, isochoric method	2182.8
305.17 K, 5069.5 kPa, isochoric method	2037.2
305.56 K, 14805 kPa, isochoric method	2102.8
311.69 K, 35046 kPa, isochoric method	2181.8
313.22 K, 982.5 kPa, isochoric method	1957.5
313.53 K, 19969 kPa, isochoric method	2101.8
313.58 K, 9932.8 kPa, isochoric method	2036.1
315.12 K, 1958.3 kPa, isochoric method	1957.3
317.18 K, 2990.2 kPa, isochoric method	1957
318.54 K, 40060 kPa, isochoric method	2180.9
319.17 K, 3976.2 kPa, isochoric method	1956.8
321.22 K, 5005.2 kPa, isochoric method	1956.5
321.68 K, 25300 kPa, isochoric method	2100.7
322.38 K, 14998 kPa, isochoric method	2034.9
328.99 K, 1994.4 kPa, isochoric method	1875.8
329.49 K, 30240 kPa, isochoric method	2099.6
331.3 K, 2985.8 kPa, isochoric method	1875.6
331.3 K, 10058 kPa, isochoric method	1955.3
331.31 K, 20061 kPa, isochoric method	2033.8
333.64 K, 3972.3 kPa, isochoric method	1875.3
336 K, 4985.7 kPa, isochoric method	1875
337.32 K, 35169 kPa, isochoric method	2098.6
340.45 K, 25264 kPa, isochoric method	2032.6
341.64 K, 15161 kPa, isochoric method	1954
343.84 K, 39291 kPa, isochoric method	2097.7
353.14 K, 20828 kPa, isochoric method	1952.6
353.15 K, 12322 kPa, isochoric method	1873
353.15 K, 32431 kPa, isochoric method	2031

Source: the NIST ThermoML archive (doi:10.1021/je3008974)
